Measured values: patent publication US8044198B2, “Sirtuin modulating compounds” (Sirtris Pharmaceuticals, Inc., priority 2005, dated 2011)
Read-outs that look alike come from different tables or passages of the source.

Tests used:
NCI-H358 cells = test: Cellular ATP Assay (ATPLite 1Step normalized to AlamarBlue viability); format: cell-based; settings: for IC50 / EC50: Homo sapiens; for IC50: compounds that lowered intracellular ATP levels
Description: Cellular ATP levels are an indirect measurement of cellular metabolic rates and, by extension, mitochondrial function. […] The ATP assay is combined with a cellular viability assay so that cellular ATP levels can be normalized to viable cells. Cellular ATP levels were measured using the ATPLite 1Step Kit (PerkinElmer) and cellular viability was measured using the cell permeable dye, AlamarBlue™.
The Cellular ATP Assay is a multiplexed assay that measures both ATP levels and viability of a given cell sample. This assay is run in a 96-well Assay Plate and data are reported as the [ATP]/viability for each well in the Assay Plate.
The ATPLite 1 Step™ Kit is a single-step luminescent cell-based assay for detection of ATP. The kit contains lyophilized substrate mixture, comprised of D-luciferin and the firefly (Photinus pyralis) enzyme luciferase. Additionally, the kit contains a detergent-based reconstitution buffer that induces the lysis of cellular membranes. The luciferase in the assay mixture catalyzes a reaction between the free cellular ATP and D-luciferin to produce bioluminescence according to the schematic reaction outlined below. The amount of light produced is proportional to the cellular ATP concentration.
The AlamarBlue™ Assay is a single-step assay that utilizes a soluble, non-toxic, cell permeable dye that is added to cell growth media. This dye undergoes electron reduction in viable cells but not dead cells. The reduced dye product gives a fluorescent signal which can be monitored with a fluorescence plate reader (excitation 545 nm and emission 575 nm). The amount of fluorescence generated in a given well is proportional to the number of viable cells. The viability signal generated by this assay is used to normalize the ATP signal from the ATPLite 1Step™ assay results.
The material was dissolved in 100% vehicle (DMSO) to yield a final concentration of 10 mM (stock solution). The stock solution was serially diluted with 100% DMSO as described in SOP 7.10.
In this assay NCI-H358 cells (obtained from the American Tissue Culture Collection, ATCC) were seeded in 96 well microplates (10^4 cells/well). The NCI-H358 Growth Culture Media consists of RPMI 1640 Media supplemented with 10% FBS, […] streptomycin, and 100 units/mL penicillin. […] After 48 hours of compound treatment under cell growth conditions, plates were removed from incubator, and 15 μl of AlamarBlue™ dye was added to each well. Cell microplates were incubated with dye for 2 hours under growth conditions, and fluorescence was subsequently measured using a plate reader. Media containing AlamarBlue™ was removed, and plates were washed in 100 μl of PBS per well. This wash was removed, and 200 μl of 1×ATPLite 1Step reagent was added to each well. Luminescence was then measured using a plate reader. The ATP signal for each well, measured by the luminescence scan, was normalized to its corresponding cell viability value, measured by the fluorescence scan, to generate the average ATP level per viable cell unit (ATP/vCell). The ATP/vCell for each treatment was then normalized to the average vehicle ATP/vCell for its respective cell microplate, yielding the normalized ATP/vCell (norm. ATP/vCell). Finally, the norm. ATP/vCell for each unique treatment was averaged across plate replicates, generating the average norm. ATP/vCell.
Each of these ATP levels was normalized to the cell viability in the corresponding treatment well, generating the ATP/vCell value. Each ATP/vCell value was subsequently normalized to its average Vehicle ATP/vCell values for its respective cell microplate.
Data are represented as the normalized ATP/vCell (arbitrary units). […] These values represent an average of three plate replicates.
A number of compounds were screened for their affect on ATP levels in the assay as described in Example 5. […] NA means that the compound was not tested using the indicated assay.

SIRT1 = molecular target: T1, SIRT1 (Homo sapiens, UniProt Q96EB6); test: SIRT1 mass spectrometry (MS) based deacetylation assay; format: biochemical
T1 sequence (Q96EB6 1-747): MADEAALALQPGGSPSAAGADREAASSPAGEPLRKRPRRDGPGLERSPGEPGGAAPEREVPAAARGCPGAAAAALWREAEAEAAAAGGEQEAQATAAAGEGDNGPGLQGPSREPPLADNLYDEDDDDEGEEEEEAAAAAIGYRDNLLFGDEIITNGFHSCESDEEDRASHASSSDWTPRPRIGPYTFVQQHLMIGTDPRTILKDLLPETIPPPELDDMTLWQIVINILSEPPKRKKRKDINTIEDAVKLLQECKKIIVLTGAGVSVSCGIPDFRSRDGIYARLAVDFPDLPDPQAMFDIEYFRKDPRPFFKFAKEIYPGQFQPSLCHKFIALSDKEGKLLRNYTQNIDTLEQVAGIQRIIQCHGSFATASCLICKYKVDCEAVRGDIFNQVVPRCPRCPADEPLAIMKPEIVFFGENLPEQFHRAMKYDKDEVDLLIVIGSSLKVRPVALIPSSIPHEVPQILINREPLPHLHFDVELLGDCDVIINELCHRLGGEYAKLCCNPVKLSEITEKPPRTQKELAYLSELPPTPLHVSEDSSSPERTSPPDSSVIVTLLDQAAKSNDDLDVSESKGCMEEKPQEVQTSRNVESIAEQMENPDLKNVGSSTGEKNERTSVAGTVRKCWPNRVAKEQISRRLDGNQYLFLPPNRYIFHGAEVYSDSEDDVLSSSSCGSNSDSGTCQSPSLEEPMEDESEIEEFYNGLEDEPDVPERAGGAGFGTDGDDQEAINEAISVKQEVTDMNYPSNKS

[1] = SIRT1 activation, mass spectrometry assay, read-out: ED50 MS ASSAY
[2] = compounds that raised intracellular ATP levels, read-out: ED50 ATP ASSAY
[3] = fold activation of SIRT1 as determined by MS
[4] = SIRT1 fold activation as determined by MS
[5] = Sirt1 activators, fold activation as determined by MS
[6] = Sirt1 activators, mass spectrometry assay, read-out: ED50 MS ASSAY

CN(C)c1cccc(C(=O)N2CCCN(c3nc4ccccc4o3)CC2)c1 [Compound 89]
IC50 (NCI-H358 cells): < 50 µM
EC50 (SIRT1; [1]): > 150 µM

COc1cc(C(=O)Nc2cccc(-c3nc4ccncc4s3)c2)cc(OC)c1OC [Compound 115]
EC50 (NCI-H358 cells; [2]): > 150 µM
EC50 (SIRT1; [1]): 5 to 50 µM
FOLD ACT. MS (SIRT1; [3]): A (A (Fold activation >250%))

COc1cccc(OC)c1C(=O)Nc1cccc(-c2nc3ccccc3s2)c1 [Compound 120]
EC50 (NCI-H358 cells; [2]): < 50 µM

COc1ccc(NC(=O)c2cccc(-c3nc4ncccc4o3)c2)cc1OC [Compound 101]
EC50 (NCI-H358 cells; [2]): 101 to 150 µM
EC50 (SIRT1; [1]): 5 to 50 µM
FOLD ACT. MS (SIRT1; [3]): A (A (Fold activation >250%))

COc1ccc(C(=O)Nc2cccc(-c3nc4cc(C)ccc4[nH]3)c2)cc1OC [Compound 117]
IC50 (NCI-H358 cells): 51 to 100 µM
EC50 (SIRT1; [1]): 5 to 50 µM
FOLD ACT. MS (SIRT1; [3]): A (A (Fold activation >250%))

Oc1ccc(C=Cc2cc(O)cc(O)c2)cc1 [resveratrol, reference compound]
maximum increase in cellular ATP levels (NCI-H358 cells; 48 hours treatment, at 50 μM resveratrol, normalized ATP/vCell): 3.0 fold
EC50 (NCI-H358 cells; 48 hours, 50% of the maximum increase in normalized ATP/vCell, read-out: EC50 ATP): 29 µM

c1cc(Nc2nc3ccccc3s2)nc(-c2nc3ncccc3o2)c1 [Compound 104]
EC50 (NCI-H358 cells; [2]): < 50 µM
EC50 (SIRT1; [1]): < 5 µM
FOLD ACT. MS (SIRT1; [3]): B (B (Fold Activation <250%))

COc1cc(C(=O)N2CCCN(c3nc4ccccc4o3)CC2)cc(OC)c1OC [Compound 91]
IC50 (NCI-H358 cells): < 50 µM
EC50 (SIRT1; [1]): > 150 µM

COc1cccc(C(=O)Nc2cccc(-c3nc4ncccc4o3)c2)c1C [Compound 49]
EC50 (NCI-H358 cells; [2]): < 50 µM
EC50 (SIRT1; [1]): 5 to 50 µM
FOLD ACT. MS (SIRT1; [3]): B (B (Fold Activation <250%))

COc1cc(C(=O)Nc2ccccc2-c2nc3ncccc3o2)cc(OC)c1OC [Compound 106]
EC50 (NCI-H358 cells; [2]): < 50 µM
EC50 (SIRT1; [1]): < 5 µM
FOLD ACT. MS (SIRT1; [3]): B (B (Fold Activation <250%))

CN(C)c1cccc(C(=O)Nc2ccccc2-c2nc3ncccc3o2)c1 [Compound 97]
EC50 (NCI-H358 cells; [2]): < 50 µM
EC50 (SIRT1; [1]): < 5 µM
FOLD ACT. MS (SIRT1; [3]): B (B (Fold Activation <250%))

COc1ccc(NC(=O)c2cccc(-c3nc4ncccc4o3)c2)c(OC)c1 [Compound 100]
EC50 (NCI-H358 cells; [2]): < 50 µM
EC50 (SIRT1; [1]): 5 to 50 µM
FOLD ACT. MS (SIRT1; [3]): B (B (Fold Activation <250%))

c1cc(Nc2nc3ccccc3o2)cc(-c2nc3ncccc3o2)c1 [Compound 93]
EC50 (NCI-H358 cells; [2]): > 150 µM
EC50 (SIRT1; [1]): 5 to 50 µM
FOLD ACT. MS (SIRT1; [3]): B (B (Fold Activation <250%))

O=C(Nc1ccc2c(c1)OCO2)Nc1cc(-c2nc3ccccc3o2)ccn1 [Compound 86, 1-Benzo[1,3]dioxol-5-yl-3-(4-benzoxazol-2-yl-pyridin-2-yl)-urea]
EC50 (NCI-H358 cells; [2]): < 50 µM
EC50 (SIRT1): > 150 µM

COc1cc(C(=O)Nc2cccc(-c3nc4cc(Cl)cc(Cl)c4o3)c2)cc(OC)c1OC [Compound 123]
EC50 (NCI-H358 cells; [2]): > 150 µM

O=C(Nc1ccc2c(c1)OCO2)N1CCCN(c2nc3ccccc3o2)CC1 [Compound 90]
EC50 (NCI-H358 cells; [2]): > 150 µM

COc1ccc(C(=O)Nc2ccc(-c3nc4cccnc4[nH]3)cc2)cc1OC [Compound 150]
EC50 (SIRT1; [1]): < 5 µM
FOLD ACT. MS (SIRT1; [3]): B (B (Fold Activation <250%))

COc1ccc(C(=O)Nc2cccc(-c3nc4ncccc4s3)c2)c(OC)c1 [Compound 202]
EC50 (SIRT1; [1]): < 5 µM
FOLD ACT. MS (SIRT1; [3]): B (B (Fold Activation <250%))

O=C(Nc1ccccc1-c1nc2cc(CN3CCNCC3)cnc2s1)c1cc(-c2ccccc2)no1 [Compound 732]
EC50 (SIRT1; [1]): < 5 µM
FOLD ACT. MS (SIRT1; [4]): B (B (Fold Activation <250%))

CN(C)c1cccc(C(=O)Nc2cncc(-c3nc4ncccc4o3)c2)c1 [Compound 68]
EC50 (SIRT1; [1]): 5 to 50 µM

COc1ccc(C(=O)Nc2cc(CN(C)C)cc(-c3nc4ncccc4o3)c2)c(OC)c1 [Compound 158]
EC50 (SIRT1; [1]): 5 to 50 µM
FOLD ACT. MS (SIRT1; [3]): B (B (Fold Activation <250%))

COc1ccc(C(=O)Nc2cccc(-c3nnc(-c4ccccc4)o3)c2)c(OC)c1 [Compound 82]
EC50 (SIRT1; [1]): 101 to 150 µM

Cc1cc(C(=O)Nc2ccccc2-c2cn3c(CN4CCNCC4)csc3n2)n(C)n1 [Compound 678]
FOLD ACT. MS (SIRT1; [5]): B (B (Fold Activation <250%))
EC50 (SIRT1; [6]): 5 to 50 µM

COc1ccc(C(=O)Nc2cc(CN3CCNCC3)cc(-c3nc4ncccc4o3)c2)cc1OC [Compound 159]
EC50 (SIRT1; [1]): 5 to 50 µM
FOLD ACT. MS (SIRT1; [3]): B (B (Fold Activation <250%))

COc1ccc(C(=O)Nc2ccc(-c3cc4cccnc4o3)cc2)c(OC)c1 [Compound 190]
EC50 (SIRT1; [1]): < 5 µM
FOLD ACT. MS (SIRT1; [3]): B (B (Fold Activation <250%))

COc1cc(C(=O)Nc2ccccc2-c2cn3c(C)csc3n2)cc(OC)c1OC [Compound 739]
EC50 (SIRT1; [1]): < 5 µM
FOLD ACT. MS (SIRT1; [4]): A (A (Fold activation >250%))

COc1ccc(C(=O)Nc2cccc(-c3nc4cccnc4[nH]3)c2)c(OC)c1OC [Compound 181]
EC50 (SIRT1; [1]): < 5 µM
FOLD ACT. MS (SIRT1; [3]): A (A (Fold activation >250%))

COc1cc(C(=O)Nc2cccc(-c3cn4cccc(C)c4n3)c2)cc(OC)c1OC [Compound 131]
EC50 (SIRT1; [1]): 5 to 50 µM
FOLD ACT. MS (SIRT1; [3]): A (A (Fold activation >250%))

COc1ccc(C(=O)Nc2cccc(-c3nc4cnccc4s3)c2)c(OC)c1OC [Compound 401]
EC50 (SIRT1; [1]): 5 to 50 µM
FOLD ACT. MS (SIRT1; fold activation of SIRT1, mass spectrometry assay): B (B (Fold Activation <250%))

COc1cc(NC(=S)Nc2cc(-c3nc4ncccc4o3)ccn2)cc(OC)c1 [Compound 661]
FOLD ACT. MS (SIRT1; [5]): B (B (Fold Activation <250%))
EC50 (SIRT1; [6]): < 5 µM

O=C(Nc1ccccc1-c1cn2c(COCC(O)CO)csc2n1)c1cnc2ccccc2n1 (centres unmarked) [Compound 699]
EC50 (SIRT1; [1]): 5 to 50 µM
FOLD ACT. MS (SIRT1; [4]): A (A (Fold activation >250%))

Cc1cnc(C(=O)Nc2ccccc2-c2cn3c(CN4CCNCC4)csc3n2)cn1 [Compound 644]
FOLD ACT. MS (SIRT1; [5]): A (A (Fold activation >250%))
EC50 (SIRT1; [6]): 5 to 50 µM
